Results reported in US20210246115A1 (Bioimics AB, priority 2017, published 2021).
Structures can show the parent of a compound that is named as a salt. Where two headings read alike, the source gives them in different places.

Experiments:
[1] = test system: A. baumannii ATCC 17978; assay: MIC, A. baumannii ATCC 17978; type: cell-based; details: Acinetobacter baumannii, ATCC17978; Table XIV B. Gram-negative bacteria
[2] = test system: H. influenzae ATCC 49247; assay: MIC, H. influenzae ATCC 49247; type: cell-based; details: Haemophilus influenzae, ATCC49247; Table XIV B. Gram-negative bacteria
[3] = test system: Staphylococcus aureus subsp. aureus (ATCC29213); assay: MIC, broth microdilution (CLSI), Staphylococcus aureus ATCC29213; type: cell-based; details: Staphylococcus aureus
[4] = test system: S. pneumoniae ATCC 49619; assay: MIC, S. pneumoniae ATCC 49619; type: cell-based; details: Streptococcus pneumoniae, ATCC49619; Table XIV A. Gram-positive bacteria
[5] = test system: H. pylori ATCC 43504; assay: MIC, H. pylori ATCC 43504; type: cell-based; details: Helicobacter pylori, ATCC43504; Table XIV B. Gram-negative bacteria
[6] = test system: Pseudomonas aeruginosa (ATCC27853); assay: MIC, broth microdilution (CLSI), Pseudomonas aeruginosa; type: cell-based; details: ATCC27853, read-out: P. aeruginosa ATCC 27853 MIC
[7] = test system: Escherichia coli (ATCC25922); assay: MIC, broth microdilution (CLSI), Escherichia coli; details: Escherichia coli
[8] = test system: E. coli JW5503 (efflux defective); assay: MIC, E. coli JW5503 (efflux defective); type: cell-based; details: Escherichia coli, read-out: E. coli JW5503 (efflux defective) MIC
[9] = test system: E. faecium ATCC 700221; assay: MIC, E. faecium ATCC 700221; type: cell-based; details: Enterococcus faecium, ATCC700221, read-out: E. faecium ATCC 700221 MIC
[10] = test system: S. aureus MRSA ATCC 33591; assay: MIC, S. aureus MRSA ATCC 33591; type: cell-based; details: Staphylococcus aureus, read-out: S. aureus MRSA ATCC 33591 MIC
[11] = test system: N. gonorrhoeae ATCC 700825; assay: MIC, N. gonorrhoeae ATCC 700825; type: cell-based; details: Neisseria gonorrhoeae, ATCC700825; Table XIV B. Gram-negative bacteria
[12] = test system: E. coli RNase P RNA, M1 RNA; assay: Inhibition of bacterial RNase P activity, IC50 determination (cleavage of pATSerUG by M1 RNA); type: biochemical; details: NI: No inhibition
[13] = test system: P. aeruginosa NTUH974 (MDR); assay: MIC, P. aeruginosa NTUH974 (MDR); type: cell-based; details: Pseudomonas aeruginosa, read-out: P. aeruginosa NTUH974 (MDR) MIC
[14] = test system: K. pneumoniae ATCC 43816; assay: MIC, K. pneumoniae ATCC 43816; type: cell-based; details: Klebsiella pneumoniae, ATCC43816; Table XIV B. Gram-negative bacteria
[15] = test system: M. fortuitum ATCC 110; assay: MIC, M. fortuitum ATCC 110; type: cell-based; details: Mycolicibacterium fortuitum, ATCC110; Table XIV A. Gram-positive bacteria
[16] = test system: S. aureus USA300 MRSA BAA-1717; assay: MIC, S. aureus USA300 MRSA BAA-1717; type: cell-based; details: Staphylococcus aureus, read-out: S. aureus USA300 MRSA BAA-1717 MIC
[17] = test system: M. phlei ATCC 11758; assay: MIC, M. phlei ATCC 11758; type: cell-based; details: Mycolicibacterium phlei, ATCC11758; Table XIV A. Gram-positive bacteria
[18] = test system: Enterococcus faecalis (ATCC29212); assay: MIC, broth microdilution (CLSI), Enterococcus faecalis; type: cell-based; details: ATCC29212, read-out: E. faecalis ATCC 29212 MIC

`N#Cc1ccc2c(c1)c(C(CCNCCCN)c1cccc(OC(F)(F)F)c1)cn2C1CCCCC1` (centres unmarked) [Compound 372, 3-(3-((3-aminopropyl)amino)-1-(3-(trifluoromethoxy)phenyl)propyl)-1-cyclohexyl-1H-indole-5-carbonitrile, dihydrochloride salt] gave an MIC [1] of 4 µg/mL, an MIC [2] of 4 µg/mL and an MIC ([3]; ATCC29213, read-out: S. aureus ATCC 29213 MIC, Table XIII) of 4 µg/mL. It also gave an MIC ([3]; ATCC29213, read-out: S. aureus ATCC 29213 MIC, Table XIV A. Gram-positive bacteria) of 2 µg/mL, an MIC [4] of 8 µg/mL and an MIC [5] of 16 µg/mL. For the same compound, the MIC [6] was 8 µg/mL, the MIC ([7]; ATCC25922, read-out: E. coli ATCC 25922 MIC, Table XIII) was 4 µg/mL and the MIC ([7]; ATCC25922, read-out: E. coli ATCC 25922 MIC, Table XIV B. Gram-negative bacteria) was 2 µg/mL. The MIC [8] was 2 µg/mL, the MIC [9] was 2 µg/mL and the MIC [10] was 4 µg/mL. The MIC [11] was 4 µg/mL, the IC50 [12] was 9.1 µM and the MIC [13] was 8 µg/mL. The MIC [14] was 2 µg/mL, the MIC [15] was 4 µg/mL and the MIC [16] was 2 µg/mL. For the same compound, the MIC [17] was 4 µg/mL and the MIC [18] was 2 µg/mL.
